{"source": "paper PMC2914821", "about": "(Biochemistry, 2010)", "molecules": {"B1": {"name": "β2(1–217): truncated sGC β2 heme domain (protein, UniProt O75343 1-217, looked up, fragment)", "chain": "MSGYDRMLRTLGGNLMEFIENLDALHSYLALSYQEMNAPSFRVERGADGKMFLHYYSDRSGLCHIVPGIIEAVAKDFFDIDVIMDILDMNEEVERTGKKEHVVFLIVQKAHRKMRKTKPKRLQDSQGMERDQEALQAAFLKMKEKYLNVSACPVKKSHWDVVRSIVMFGKGHLMNTFEPIYPERLWIEEKTFCNAFPFHIVFDESLQVKQARVNIQK", "modifications": "heme domain"}, "B2": {"name": "β1(1–194): truncated sGC β1 heme domain corresponding to the H-NOX domain (protein, UniProt Q02153 1-194, looked up, fragment)", "chain": "MYGFVNHALELLVIRNYGPEVWEDIKKEAQLDEEGQFLVRIIYDDSKTYDLVAAASKVLNLNAGEILQMFGKMFFVFCQESGYDTILRVLGSNVREFLQNLDALHDHLATIYPGMRAPSFRCTDAEKGKGLILHYYSEREGLQDIVIGIIKTVAQQIHGTEIDMKVIQQRNEECDHTQFLIEEKESKEEDFYED", "modifications": "H-NOX domain"}}, "key": {"ferrous Ns H-NOX": {"tested_on": "ferrous Ns H-NOX", "assay": "CO and NO binding kinetics to ferrous Ns H-NOX", "design": "species or system Nostoc sp", "settings": "for kOFF: 6c-CO complex / 1st 6c-NO complex, 20 – 25 °C"}, "sGC": {"target": "sGC", "settings": "cited from earlier work; for Kd / kOFF: sGC"}, "ferric sGC": {"target": "ferric sGC", "settings": "cited from earlier work"}, "[1]": {"settings": "ferrous, 37 °C; cited from earlier work"}}, "note": "Where two headings read alike, the source gives them in different places."}
{"molecule": "[C-]#[O+]", "note": "[CO, carbon monoxide]", "values": [{"measurement": "rate of reaction with CO, Ns H-NOX relative to sGC", "setting": "ferrous Ns H-NOX", "result": 100, "unit": "fold"}, {"measurement": "second-order rate constant of CO binding", "setting": "ferrous Ns H-NOX; 5 µM ferrous Ns H-NOX, [CO] 25 to 166 µM, 24 °C, two separately purified samples", "result": "2 – 3 × 10^6 M^−1s^−1"}, {"measurement": "Kd for CO binding, ratio koff/kon", "setting": "ferrous Ns H-NOX; 3.6 s^-1/3.0 µM^−1s^−1", "result": 1.2, "unit": "µM"}, {"measurement": "CO association rate constant (free linear fit)", "setting": "ferrous Ns H-NOX; 24 °C", "result": "2.9e+06", "unit": "M⁻¹ s⁻¹"}, {"measurement": "CO dissociation rate constant (koff) from y-axis intercept of kobs versus [CO]", "setting": "ferrous Ns H-NOX; 24 °C", "result": 23, "unit": "s⁻¹"}, {"measurement": "kOFF", "setting": "ferrous Ns H-NOX; Ns H-NOX", "result": 3.6, "unit": "s⁻¹"}, {"measurement": "Kd", "setting": "sGC; 4 °C", "result": 260, "unit": "µM"}, {"measurement": "kOFF", "setting": "sGC; 4 °C", "result": 10.7, "unit": "s⁻¹"}]}
{"molecule": "[N-]=[N+]=[N-]", "note": "[N3^−, azide]", "values": [{"measurement": "observed rate constant of azide binding", "setting": "ferric Ns H-NOX", "result": "~ 0.015 s^−1"}, {"measurement": "Kd", "setting": "ferric sGC", "result": 26000, "unit": "µM"}]}
{"molecule": "O=O", "note": "[O2, oxygen]", "values": [{"measurement": "O2 binding (comment)", "setting": "sGC", "result": "No O2 binding at 1 atm, 10 °C"}]}
{"molecule": "nitric oxide [NO]", "values": [{"measurement": "fraction of 5c NO-heme in final NO-heme complex", "setting": "ferrous Ns H-NOX; EPR, large excess (1 atm) of NO gas, wild type Ns H-NOX", "result": "~ 40%"}, {"measurement": "overall equilibrium affinity for NO relative to CO", "setting": "ferrous Ns H-NOX; Ns H-NOX", "result": "4 orders of magnitude"}, {"measurement": "kOFF", "setting": "ferrous Ns H-NOX; Ns H-NOX", "result": 0.05, "unit": "s⁻¹"}, {"measurement": "first order rate constant of 6c-NO to 5c-NO conversion, first phase", "setting": "ferrous Ns H-NOX; excess NO, independent of [NO]", "result": "~ 7 s^−1"}, {"measurement": "first order rate constant of 6c-NO to 5c-NO conversion, second phase", "setting": "ferrous Ns H-NOX; excess NO, independent of [NO]", "result": 0.3, "unit": "s⁻¹"}, {"measurement": "NO association rate constant for first 6c-NO complex", "setting": "ferrous Ns H-NOX; flow-flash, 436 and 418 nm, 24 °C", "result": "200 – 400 µM^−1s^−1 and ≈ 300 µM^−1s^−1"}, {"measurement": "NO dissociation first order rate constant, minor slow phase", "setting": "ferrous Ns H-NOX; initial 6c-NO complex mixed with 0.5 mM CO and 25 mM dithionite", "result": 0.007, "unit": "s⁻¹"}, {"measurement": "Kd", "setting": "ferrous Ns H-NOX; read-out: apparent Kd for first NO binding step", "result": "~0.00017", "unit": "µM"}, {"measurement": "kOFF", "setting": "sGC; 5c (off), 10 °C", "result": 0.0006, "unit": "s⁻¹"}, {"measurement": "Kd", "setting": "sGC; 10 °C, calculated as kOFF/kON", "result": "4.2e-06", "unit": "µM"}]}
{"molecule": "B1", "values": [{"measurement": "rate of autooxidation", "setting": "[1]", "result": 0.18, "unit": "h⁻¹"}]}
{"molecule": "B2", "values": [{"measurement": "rate of autooxidation", "setting": "[1]", "result": 4.3, "unit": "h⁻¹"}]}
